Source: patent US8952192B2, “Phosphorylated and branched dihydroxy-pentane-dione (DPD) analogs as quorum sensing inhibitors in bacteria” (University of Maryland, College Park, priority 2011, dated 2015)
“Also recorded” adds a separate entry of the source. Like-named read-outs stand apart in the source and are kept apart here.

Key:
[1] = system: lsr expression in E. coli (lsr-lacZ reporter strains); assay: QS response (lsr expression): AI-2 dependent β-galactosidase production, Miller assay; format: cell-based, Escherichia coli
Experimental: The panel of C1-alkyl analogs was screened to identify QS modulators in the enteric bacteria E. coli and S. typhimurium. Transcription of the QS associated lsr operon, by using lsr-lacZ reporter strains (Table 2) which produce β-galactosidase in response to added AI-2 was monitored. In order to first establish if the analogs were agonists or antagonists in the QS circuit, the analogs were incubated with E. coli LW7 pLW11 and S. typhimurium MET715 (FIG. 19a-b) both of which are luxS^−. None of the analogs, except ethyl-DPD behaved as agonists for lsr expression. Previous studies investigating AI-2 antagonism in P. aeruginosa or in S. typhimurium were carried out using chemically synthesized AI-2 added to luxS^− cells. […] The same trends were obtained by adding a 1:1 ratio of enzymatically synthesized AI-2 and DPD analogs to the luxS^− strains E. coli LW7 pLW11 and S. typhimurium MET715 (FIG. 11a-b). None of the tested DPD analogs were bacteriocidal or bacteriostatic as the OD600 values of E. coli ZK126 pLW11 and S. typhimurium MET708 in the presence and absence of the analogs were similar (FIG. 10). Though the QS circuitry of the enteric organisms, E. coli and S. typhimurium are homologous they respond differently to the DPD analogs. The E. coli QS circuitry is susceptible to being silenced by a variety of DPD analogs of different shapes and sizes whereas in S. typhimurium, only a handful of DPD analogs could antagonize the action of AI-2. […] Isobutyl-DPD emerged as an effective and non-species-specific quencher; causing significant lsr expression knockdowns in both E. coli and S. typhimurium.
The QS response indicated by lsr gene expression was analyzed in pure culture studies by culturing E. coli LW7 pLW11, E. coli ZK126 pLW11 and S. typhimurium MET708, S. typhimurium MET715 overnight in LB medium supplemented with appropriate antibiotics as stated previously. These cells were then diluted into fresh LB medium (with antibiotics) and grown to an OD600 of 0.8-1.0 at 30° C., 250 rpm. Cells were then collected by centrifugation at 10,000×g for 10 minutes, and resuspended in 10 mM phosphate buffer. AI-2 (20 μM) and the respective analog (20 μM) were added to the E. coli or S. typhimurium suspension for 2 hours at 37° C. AI-2 dependent β-galactosidase production was quantified by the Miller assay.
The QS response indicated by lsr gene expression was analyzed in pure culture studies by culturing E. coli LW7 pLW11 and S. typhimurium MET715 overnight at 30° C. in LB medium supplemented with appropriate antibiotics as stated previously. These cells were then diluted into fresh LB medium (with antibiotics) and grown to an OD600 of 0.4-0.8 at 37° C., 250 rpm. Cells were then collected by centrifugation at 10,000×g for 10 min and resuspended in 10 mM phosphate buffer. AI-2 (20 μM) and the respective analog (20 μM) were added to the E. coli or S. typhimurium suspension for 2 h at 37° C. AI-2 dependent β-galactosidase production was quantified by the Miller assay.
The QS response indicated by lsr gene expression was analyzed in pure culture studies by culturing E. coli LW7 pLW11, E. coli ZK126 pLW11 and S. typhimurium MET708, S. typhimurium MET715 overnight in LB medium individually supplemented with appropriate antibiotics, as specified above. These cells were diluted into fresh LB medium (with antibiotics) and grown to an OD600 of 0.8-1.0 at 30° C., 250 rpm. Cells were collected by centrifugation at 10,000×g for 10 minutes, and resuspended in 10 mM phosphate buffer. AI-2 (20 μM) and the respective analog (20 μM) were added to the E. coli or S. typhimurium suspension for 2 hours at 37° C. AI-2 dependent β-galactosidase production was quantified by the Miller assay.

[2] = system: pyocyanin production in P. aeruginosa PAO1; assay: QS response (pyocyanin production); format: cell-based; settings: pure culture P. aeruginosa PAO1, DPD analogs (100 μM)
Experimental: Identifying Modulators of P. aeruginosa QS. DPD analogs (100 μM) were screened for activity in P. aeruginosa PAO1 by monitoring pyocyanin production (FIG. 34b and FIG. 38).
The cells were grown with the analog at 3 mL total volume in 50 mL flasks in LB medium, with continuous shaking. Between 22-24 h, when the cells turned green after pyocyanin secretion, the pigment was extracted. The pyocyanin quantification assay was conducted as described. 2 mL chloroform was added to the 3 mL culture and pipetted up and down. 1 mL of the chloroform was transferred to a separate tube and the pyocyanin was re-extracted into 200 μL of 0.2 M HCl. The absorbance of the solution was measured at OD 520 nm. To calculate the concentration of pyocyanin extracted as μg/mL, the OD at 520 nm was multiplied by 17.07.

E. coli W3110 pCT6 dsRED = assay: Tri-species synthetic ecosystem (E. coli, S. typhimurium, P. aeruginosa): AI-2 mediated dsRED expression; format: cell-based; settings: tri-species culture, 40 μM analog, no exogenous AI-2, 24 h
Experimental: (§1) Effect of analogs in a tri-species synthetic ecosystem. […] Isobutyl-DPD (40 μM) and phenyl-DPD (40 μM) were added to a tri-species synthetic ecosystem created by culturing E. coli, S. typhimurium and P. aeruginosa in the same tubes. In order to differentiate and monitor the QS response from each organism, different and orthogonal reporter strains were used; in E. coli, AI-2 mediated dsRED expression, in S. typhimurium, AI-2 mediated β-galactosidase production; and in P. aeruginosa effects of AI-2 were examined for pyocyanin production.
(§2) S. typhimurium MET708, P. aeruginosa PAO1 and E. coli W3110 pCT6 dsRED were each cultured separately overnight in LB medium supplemented with the appropriate antibiotic. P. aeruginosa PAO1, S. typhimurium MET708 and E. coli W3110 pCT6 dsRED were diluted (25 μL:2.5 μL:100 μL) of the overnight culture respectively, into a single 2 mL final volume of fresh LB medium without antibiotics. […] The S. typhimurium lacZ (β-galactosidase) activity was measured after 4 h. The E. coli response was determined after 24 h, by fixing the cells with 1:1 cold 4% paraformaldehyde and using flow cytometric analysis. Samples were analyzed by flow cytometry (FACS Canto II, BD 394 Biosciences), with 30,000 gated events analyzed per sample. […]

S. typhimurium MET708 = assay: Tri-species synthetic ecosystem (E. coli, S. typhimurium, P. aeruginosa): AI-2 mediated β-galactosidase production; format: cell-based; settings: tri-species culture, 40 μM analog, no exogenous AI-2, 4 h
Experimental: as §1, §2

Q: Which results are given for `O=C(C(=O)C(O)CO)c1ccccc1` (centres unmarked) [Phenyl-DPD, Phenyl DPD]?
A: inhibition of AI-2-mediated lsr expression (β-galactosidase), in words ([1]; E. coli LW7 pLW11 (luxS−), 20 μM AI-2 (DPD) + 20 μM analog): no; IC50 ([1]; Escherichia coli, read-out: IC50 (lsr expression in E. coli)): > 40000 nM; inhibition of pyocyanin production [2]: some inhibition; QS inhibition in E. coli (dsRED expression) (E. coli W3110 pCT6 dsRED): largely ineffective; QS inhibition in S. typhimurium (β-galactosidase production) (S. typhimurium MET708): largely ineffective

Q: Which “effect on native lsr expression (QS response)” value ([1]; E. coli ZK126 pLW11 (luxS+), cells produce their own AI-2) does the source give for `CC(C)CC(=O)C(=O)[C@@H](O)CO` [Isobutyl-DPD, isobutyl-DPD] here?
A: significant knocked down; also recorded: potent QS “quencher”

Q: And the “IC50 (lsr expression in E. coli), in words” value ([1]; Example 6)?
A: nanomolar range

Q: What about the IC50 ([1]; concentration reducing lsr expression (β-galactosidase production) to 50% in the presence of 20 μM exogenously added synthetic DPD, read-out: IC50 of analog (nM) to inhibit QS in E. coli) of the same molecule?
A: 54 nM

Q: And the “inhibition of pyocyanin production” value [2]?
A: lack of inhibitory effects

Q: What about the “QS inhibition in E. coli (dsRED expression)” value (E. coli W3110 pCT6 dsRED) of the same molecule?
A: inhibit all three species

Q: And the “QS inhibition in S. typhimurium (β-galactosidase production)” value (S. typhimurium MET708)?
A: inhibit all three species
